From patent US11376215B2, “Feed composition for improving intraintestinal environment” (AJINOMOTO CO., INC., priority 2017, dated 2022) come the findings set out here.

Common to all, as to format: cell-based
The subject of test [1] is bifidobacteria. The test is described as follows: Experimental Example 1-1: addition test of amino acid and fructo-oligosaccharide to human feces suspension. Conditions: amino acid added together with 0.5% FOS, anaerobic culture 4 days at 37° C., quantitative PCR, compared with FOS alone. On the procedure: The PBS solutions for the Examples and Comparative Examples shown in Table 1-1 were prepared and used as media for a feces culture. PBS alone was used as a control. Fructo-oligosaccharide (FOS) manufactured by Wako Pure Chemical Industries, Ltd. (#064-02385) was used.
(§1) Thereafter, 10 ml of each solution was dispensed into glass vials and the glass vials were sterilized by autoclave, made anaerobic, and sealed with a butyl rubber stopper. The feces suspension was prepared by collecting about 10 g of feces from 3 healthy individuals (one man and two women) in their 20s to 40s and suspending same in 80 ml of anaerobic PBS. The feces suspension was added to each vial by 0.5 ml, placed in an incubator at 37° C., and anaerobically cultured for 4 days with tumble blending once per day. After completion of the culture, an intestinal bacterial pellet was obtained from the entire amount of the culture medium by centrifugation (8,000×g, 5 min). DNA was extracted from this pellet using ISOFECAL for BeadsBeat (manufactured by NIPPON GENE CO., LTD.), and quantitative PCR was performed using GeneAce SYBR qPCR Mix α (manufactured by NIPPON GENE CO., LTD.). Quantitative PCR was performed under the conditions of 45 cycles of 95° C. for 30 sec and 60° C. for 60 sec after 95° C. for 10 min. Primers for quantitative PCR used for detection bifidobacteria are as follows:
(§2) Using the results obtained by quantitative PCR, the relative amount when the control is 1 was calculated, and the results were normalized with z-score.

In test [2] the test system is bifidobacteria. The test is described as follows: Experimental Example 2: addition test of amino acid and galacto-oligosaccharide to human feces suspension. Conditions: amino acid added together with 0.5% GOS, anaerobic culture 4 days, quantitative PCR, compared with GOS alone. As for the experimental part:
as §1
The PBS solutions for the Examples and Comparative Examples shown in Table 2 were prepared and used as media for a feces culture. […]
as §2

Test [3] concerns bifidobacteria. The test is described as follows: Experimental Example 1-2: addition test of amino acid and fructo-oligosaccharide to human feces suspension. Conditions: amino acid added together with 0.5% FOS, anaerobic culture 4 days, quantitative PCR, compared with FOS alone. As for the experimental part:
as §1
The PBS solutions for the Examples and Comparative Examples shown in Table 1-2 were prepared and used as media for a feces culture. […]
as §2

`NCCCC[C@H](N)C(=O)O` [Lys, L-lysine]: the proliferation of bifidobacteria result in the test with bifidobacteria [1] was “greater proliferation of bifidobacteria than that with FOS alone”; with bifidobacteria [2], “greater proliferation of bifidobacteria than that with GOS alone”. With `O=C(O)[C@@H]1CCCN1` [Pro, L-proline], the proliferation of bifidobacteria result with bifidobacteria [3] is on record as “greater proliferation of bifidobacteria than that with FOS alone”. Take `N[C@@H](CCC(=O)O)C(=O)O` [Glu, L-glutamic acid]: the proliferation of bifidobacteria entry was “greater proliferation of bifidobacteria than that with FOS alone” with bifidobacteria [1] and “greater proliferation of bifidobacteria than that with GOS alone” in the test with bifidobacteria [2].

In the case of `C[C@H](N)C(=O)O` [Ala, L-alanine], the proliferation of bifidobacteria result in the test with bifidobacteria [1] is given as “greater proliferation of bifidobacteria than that with FOS alone”.

As for `N[C@@H](Cc1c[nH]cn1)C(=O)O` [His, L-histidine], in the test on bifidobacteria [3], the proliferation of bifidobacteria entry is “greater proliferation of bifidobacteria than that with FOS alone”. Turning to `CC[C@H](C)[C@H](N)C(=O)O` [Ile, L-isoleucine], the proliferation of bifidobacteria result in the test on bifidobacteria [1] is “greater proliferation of bifidobacteria than that with FOS alone”. The same measure, in the same setting: with `CC(C)[C@H](N)C(=O)O` [Val, L-valine] the entry was “greater proliferation of bifidobacteria than that with FOS alone”; with `NC(=O)CC[C@H](N)C(=O)O` [Gln, L-glutamine], “greater proliferation of bifidobacteria than that with FOS alone”.
